The values that follow come from patent US20130160151A1, “TRANSGENIC ANIMAL AS A MODEL FOR IDENTIFYING ADULT STEM CELLS, AND USES THEREOF” (Universite Pierre et Marie Curie (PARIS 6), priority 2010, published 2013).

“Also recorded” adds a separate entry of the source.

One assay deals with β-gal positive cells. Kind of assay: In vitro culture of FAC-sorted blue (β-gal positive) cells with or without EGF. Format: cell-based. The note with it: medium containing EGF vs without EGF; FAC-sorted blue cells of the transgenic mouse. How it is done:
FIGS. 6A and 6B show in vitro culture of β-gal positive cells after FAC sorting in absence (6A) or in presence (6B) of EGF.
The inventors isolated cells from a transgenic mouse as obtained in Example 1, and isolated them by FAC sorting. Only the blue cells were cultured in vitro.
Then for proof of concept, the cells were contacted with human recombinant EGF or without EGF. The growth factor was tested for its ability to keep the cells blue over time.

For a further assay, the system named is skin stem cells. The assay is described as follows: Screening feasibility: number of blue clones per well of skin stem cells treated with factors. The assay is classed as cell-based, mouse. Conditions: skin stem cells from 7 week-old Pw1nlacZ mice, 2 cells/μl, factors added after 3 days in culture, a week treatment, duplicates. How it is done: FIG. 9 is a graph showing the number of clones of skin stem cells after a week treatment with various factors (EGF, BMP2, BMP4, Activin A).
Fluorescence-activated cell sorting has been performed, dorsal skin from 7 week-old Pw1^nlacZ mice (n=3-5) were collected and cell preparation was obtained. For detection of nuclear β-galactosidase activity, a fluorescein di-β-D-galactopyranoside (FDG) staining kit (Invitrogen) was used according to manufacturer's instructions. Cells were then plated on 24 or 96 wells at density of 2 cells/μl. The cells were treated with 4 different factors after 3 days in culture: • EGF, Human recombinant protein from R&D system • BMP2, Human recombinant protein from Humanzyme • BMP4, Human recombinant protein from Humanzyme • Activin A, Human recombinant protein from Humanzyme
The analysis of the effect of different factors has been done using a simple readout: counting the number of blue clones per well. […] This experiment has been done in duplicates.

Take “EGF: Human recombinant protein from R&D system”: in the assay with β-gal positive cells, the “number of blue cells per clone” value is on record as “greater; also recorded: higher” and the “number of blue clones” value was “greater; also recorded: higher”. The “number of blue clones per well (cell growth)” value in the assay with skin stem cells is “allows the cells to grow”.
